Measured values taken from PMC12073785, “Design, Synthesis and Biological Evaluation of 3-Hydrazonoindolin-2-one Derivatives as Novel HIV-1 RNase H Inhibitors” (Molecules, 2025).

Key:
HIV-1 (strain IIIB) = assay: Anti-HIV-1 (strain IIIB) activity in MT-4 cells, MTT assay; type: cell-based; conditions: protection of MT-4 cells against HIV-induced cytopathogenicity by 50%
Procedure: (§1) The anti-HIV-1 (strain IIIB) activity evaluation in MT-4 cells was conducted using an optimized MTT assay. The cell lines were obtained from the laboratory (Prof. Erik De Clercq, Rega Institute for Medical Research, KU Leuven, Herestraat 49, Leuven, Belgium). Compounds were serially diluted (5-fold increments, starting from 10× concentration) and dispensed into 96-well plates (25 µL/well) via an automated Biomek 3000 workstation (Beckman Instruments, Fullerton, CA, USA). Parallel experimental groups included virus-infected (50 µL HIV inoculum, 100–300 TCID50) and mock-infected controls (50 µL culture medium). MT-4 cells were centrifuged (220× g, 5 min), resuspended to 6 × 10⁵ cells/mL, and seeded (50 µL/well). After a 5-day incubation, cell viability was quantified by measuring mitochondrial dehydrogenase-mediated MTT-to-formazan conversion using dual-wavelength spectrophotometry (540 nm primary, 690 nm reference). The 50% cytotoxic concentration (CC50) was calculated from triplicate median absorbance values, representing the compound concentration reducing mock-infected cell viability by 50%.

MT-4 cells = assay: Cytotoxicity in mock-infected MT-4 cells, MTT assay; type: cell-based
Procedure: as §1

Row | EC50 (HIV-1 (strain IIIB)) [nM] | SMILES | CC50 (MT-4 cells) [nM]
1 | 3 | O=C1Nc2ccc(Cl)cc2[C@@](C#CC2CC2)(C(F)(F)F)O1 [EFV, reference compound] | > 4590
2 | 190 | Cc1ccnc2c1NC(=O)c1cccnc1N2C1CC1 [NVP, reference compound] | > 15000
